Source: patent US10584114B2, “Inhibitors of RET” (BLUEPRINT MEDICINES CORPORATION, priority 2015, dated 2020)

How the values were obtained:
wild type RET = wild type RET (Homo sapiens (Human), UniProt P07949); experiment: RET Wild Type Assay at KM (Caliper electrophoretic mobility shift); type: biochemical; conditions: 25 μM ATP, 25° C., 120 minutes
RET V804L = RET V804L (Homo sapiens (Human), UniProt P07949, V804L); experiment: RET V804L Gatekeeper Mutant Assay at KM (Caliper electrophoretic mobility shift); type: biochemical; conditions: 10 μM ATP, 25° C., 120 minutes
Chain of RET V804L (P07949 658-1114 V804L): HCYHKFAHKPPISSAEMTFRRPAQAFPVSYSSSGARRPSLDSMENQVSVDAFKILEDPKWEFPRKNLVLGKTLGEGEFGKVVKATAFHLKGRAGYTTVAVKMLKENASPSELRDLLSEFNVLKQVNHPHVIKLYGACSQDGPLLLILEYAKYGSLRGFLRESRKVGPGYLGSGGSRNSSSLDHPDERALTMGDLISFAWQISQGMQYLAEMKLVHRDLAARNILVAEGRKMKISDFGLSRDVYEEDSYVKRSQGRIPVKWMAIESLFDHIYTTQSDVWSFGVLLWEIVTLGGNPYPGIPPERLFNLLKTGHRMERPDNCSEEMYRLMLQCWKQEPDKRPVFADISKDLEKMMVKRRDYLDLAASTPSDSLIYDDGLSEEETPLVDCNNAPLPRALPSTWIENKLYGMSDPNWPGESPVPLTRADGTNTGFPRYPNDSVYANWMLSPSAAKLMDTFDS

Chain of wild type RET (P07949 658-1114): as the sequence (P07949 658-1114 V804L) above, with L147V counted along it

Cc1cc(Nc2cc(C)[nH]n2)nc([C@H]2CC[C@@H](C(=O)NCc3ccc(-n4cccn4)nc3)CC2)n1 [Compound 100]
IC50 (wild type RET): > 100 nM
IC50 (RET V804L): > 100 nM

Cc1cc(Nc2cc(C)[nH]n2)nc([C@H]2CC[C@H](C(=O)NCc3ccc(-n4cccn4)nc3)CC2)n1 [Compound 101]
IC50 (wild type RET): < 10 nM
IC50 (RET V804L): < 10 nM

Cc1cc(Nc2cc(C)[nH]n2)nc([C@H]2CC[C@@H](C(=O)N[C@@H](C)c3ccc(-n4cccn4)nc3)CC2)n1 [Compound 102]
IC50 (wild type RET): > 100 nM
IC50 (RET V804L): > 100 nM

Cc1cc(Nc2cc(C)[nH]n2)nc([C@H]2CC[C@H](C(=O)N[C@@H](C)c3ccc(-n4cccn4)nc3)CC2)n1 [Compound 103]
IC50 (wild type RET): < 10 nM
IC50 (RET V804L): < 10 nM

Cc1cc(Nc2cc(C)[nH]n2)nc([C@@H]2CC[C@@H](C(=O)NCc3ccc(-n4cccn4)nc3)[C@@H](C)C2)n1 [Compound 104]
IC50 (wild type RET): > 100 nM
IC50 (RET V804L): > 100 nM

Cc1cc(Nc2cc(C)[nH]n2)nc([C@H]2CC[C@H](C(=O)NCc3ccc(-n4nc(C)cc4C)nc3)CC2)n1 [Compound 106]
IC50 (wild type RET): < 10 nM
IC50 (RET V804L): 10 to 100 nM

Cc1cc(Nc2cc(C)[nH]n2)nc([C@@]2(O)CC[C@H](C(=O)NCc3ccc(-n4cccn4)nc3)[C@H](C)C2)c1 [Compound 107]
IC50 (wild type RET): < 10 nM
IC50 (RET V804L): < 10 nM

Cc1cc(Nc2cc(C)[nH]n2)nc([C@H]2CC[C@H](C(=O)NCc3ccc(-n4cc(Cl)cn4)nc3)CC2)n1 [Compound 113]
IC50 (wild type RET): < 10 nM
IC50 (RET V804L): < 10 nM

Cc1cc(Nc2cc(C)[nH]n2)nc([C@]2(O)CC[C@@H](C(=O)NCc3ccc(-n4cccn4)nc3)C(C)(C)C2)c1 [Compound 114]
IC50 (wild type RET): < 10 nM
IC50 (RET V804L): < 10 nM

Cc1cc(Nc2cc(C)[nH]n2)nc([C@@H]2CC[C@@H](C(=O)N[C@@H](C)c3ccc(-n4cc(F)cn4)nc3)[C@@H](C)C2)n1 [Compound 116]
IC50 (wild type RET): > 100 nM
IC50 (RET V804L): 10 to 100 nM

Cc1cc(Nc2cc(C)[nH]n2)nc([C@]2(O)CC[C@H](C(=O)N[C@@H](C)c3ccc(-n4cc(F)cn4)nc3)CC2)c1 [Compound 119]
IC50 (wild type RET): > 100 nM
IC50 (RET V804L): > 100 nM

Cc1cc(Nc2cc(C)[nH]n2)nc([C@]2(O)CC[C@@H](C(=O)N[C@@H](C)c3ccc(-n4cc(F)cn4)nc3)CC2)c1 [Compound 120, (1s,4R)—N—((S)-1-(6-(4-fluoro-1H-pyrazol-1-yl)pyridin-3-yl)ethyl)-4-hydroxy-4-(4-methyl-6-(5-methyl-1H-pyrazol-3-ylamino)pyridin-2-yl)cyclohexanecarboxamide]
IC50 (wild type RET): < 10 nM
IC50 (RET V804L): < 10 nM

Cc1cc(Nc2cc(C)[nH]n2)nc([C@@H]2CC[C@@H](C(=O)N[C@@H](C)c3ccc(-n4cc(F)cn4)nc3)C(C)(C)C2)n1 [Compound 124]
IC50 (wild type RET): > 100 nM
IC50 (RET V804L): 10 to 100 nM

CO[C@]1(C(=O)N[C@@H](C)c2cnc(-n3cc(F)cn3)cn2)CC[C@H](c2nc(C)cc(Nc3cc(C)[nH]n3)n2)CC1 [Compound 131]
IC50 (wild type RET): < 10 nM
IC50 (RET V804L): < 10 nM

CCO[C@]1(C(=O)N[C@@H](C)c2ccc(-n3cc(F)cn3)nc2)CC[C@H](c2nc(C)cc(Nc3cc(C)[nH]n3)n2)CC1 [Compound 136]
IC50 (wild type RET): < 10 nM
IC50 (RET V804L): < 10 nM

CO[C@]1(C(=O)N[C@@H](C)c2ccc(-n3cc(F)cn3)nc2)CC[C@](O)(c2cc(C)cc(Nc3cc(C)[nH]n3)n2)CC1 [Compound 137]
IC50 (wild type RET): > 100 nM
IC50 (RET V804L): > 100 nM

CO[C@]1(C(=O)N[C@@H](C)c2ccc(-n3cc(F)cn3)nc2)CC[C@@](O)(c2cc(C)cc(Nc3cc(C)[nH]n3)n2)CC1 [Compound 138]
IC50 (wild type RET): < 10 nM
IC50 (RET V804L): < 10 nM

Cc1cc(Nc2cc(C)[nH]n2)nc(C2=CCC(C(=O)N[C@@H](C)c3ccc(-n4cc(F)cn4)nc3)CC2)n1 (stereo partly shown) [Compound 144]
IC50 (wild type RET): < 10 nM
IC50 (RET V804L): < 10 nM

Cc1cc(Nc2cc(C)[nH]n2)nc([C@]2(O)CC[C@@H](C(=O)N[C@@H](C)c3ccc(-n4cc(F)cn4)nc3)OC2)c1 [Compound 146]
IC50 (wild type RET): < 10 nM
IC50 (RET V804L): < 10 nM

CO[C@]1(C(=O)NCc2cnc(-n3cc(F)cn3)cn2)CC[C@H](c2nc(C)cc(Nc3cc(C)[nH]n3)n2)CC1 [Compound 150]
IC50 (wild type RET): < 10 nM
IC50 (RET V804L): < 10 nM
